Publication PMC5428509, “Irreversible inhibition of BTK kinase by a novel highly selective inhibitor CHMFL-BTK-11 suppresses inflammatory response in rheumatoid arthritis model” (Scientific Reports, 2017)

Experiments:
Assay in all cases: biochemical
Parameters in all cases: KinomeScan competition binding panel (DiscoveRx), percent of control at 1 uM
Details in all cases: read-out: Percent Control
MRCKB = target: T1, MRCKB (Homo sapiens, UniProt Q9Y5S2)
T1 construct: gene CDC42BPB
Method in brief: (§1)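 Selectivity profiled across 456 kinases/mutants by KinomeScan binding technology.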

DCAMKL2 = target: T2, DCAMKL2 (Homo sapiens, UniProt Q8N568)
T2 construct: gene DCLK2
Method in brief: as §1

AKT3 = AKT3 (Homo sapiens, UniProt Q9Y243)
Method in brief: as §1

MAP3K1 = MAP3K1 (Homo sapiens, UniProt Q13233)
Chain of MAP3K1 (Q13233 whole entry): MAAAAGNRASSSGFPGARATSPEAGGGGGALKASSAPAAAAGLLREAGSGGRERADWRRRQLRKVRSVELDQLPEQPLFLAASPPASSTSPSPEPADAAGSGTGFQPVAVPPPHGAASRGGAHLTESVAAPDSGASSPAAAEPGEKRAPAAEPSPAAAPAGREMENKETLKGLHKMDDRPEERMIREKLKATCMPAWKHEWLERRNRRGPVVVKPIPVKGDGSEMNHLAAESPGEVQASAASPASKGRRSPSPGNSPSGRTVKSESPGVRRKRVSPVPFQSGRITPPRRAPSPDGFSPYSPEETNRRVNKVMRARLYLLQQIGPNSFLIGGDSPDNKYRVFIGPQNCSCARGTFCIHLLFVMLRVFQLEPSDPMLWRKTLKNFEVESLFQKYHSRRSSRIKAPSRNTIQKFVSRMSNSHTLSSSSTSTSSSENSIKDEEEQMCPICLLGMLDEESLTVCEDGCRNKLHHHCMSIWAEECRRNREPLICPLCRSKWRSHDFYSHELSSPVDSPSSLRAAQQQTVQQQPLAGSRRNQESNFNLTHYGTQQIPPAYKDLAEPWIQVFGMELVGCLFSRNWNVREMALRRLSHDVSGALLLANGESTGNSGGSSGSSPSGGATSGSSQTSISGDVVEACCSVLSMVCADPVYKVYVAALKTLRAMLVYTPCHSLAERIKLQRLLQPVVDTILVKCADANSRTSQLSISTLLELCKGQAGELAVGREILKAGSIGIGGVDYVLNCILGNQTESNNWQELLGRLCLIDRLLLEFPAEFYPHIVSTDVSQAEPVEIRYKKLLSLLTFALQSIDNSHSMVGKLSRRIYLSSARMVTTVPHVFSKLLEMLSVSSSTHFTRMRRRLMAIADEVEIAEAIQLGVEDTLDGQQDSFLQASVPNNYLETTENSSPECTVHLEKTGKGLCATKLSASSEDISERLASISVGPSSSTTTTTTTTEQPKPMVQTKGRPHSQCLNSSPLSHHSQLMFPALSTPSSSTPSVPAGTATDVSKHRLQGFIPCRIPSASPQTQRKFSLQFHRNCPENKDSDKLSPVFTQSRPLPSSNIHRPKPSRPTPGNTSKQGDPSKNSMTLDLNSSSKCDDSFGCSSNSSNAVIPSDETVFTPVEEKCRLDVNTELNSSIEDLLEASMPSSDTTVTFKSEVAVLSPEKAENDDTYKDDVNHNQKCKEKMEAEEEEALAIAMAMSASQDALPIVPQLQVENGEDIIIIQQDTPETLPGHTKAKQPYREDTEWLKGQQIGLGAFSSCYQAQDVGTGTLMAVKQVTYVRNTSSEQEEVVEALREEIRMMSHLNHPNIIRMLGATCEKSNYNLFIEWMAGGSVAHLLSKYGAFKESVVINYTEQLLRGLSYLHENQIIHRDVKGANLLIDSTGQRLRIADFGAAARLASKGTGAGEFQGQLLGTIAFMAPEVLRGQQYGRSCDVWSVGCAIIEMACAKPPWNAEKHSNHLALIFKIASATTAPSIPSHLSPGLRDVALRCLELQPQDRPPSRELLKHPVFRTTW
Method in brief: as §1

PIK3CA(M1043I) = PIK3CA(M1043I) (Homo sapiens, UniProt P42336, M1043I)
Method in brief: as §1

PCTK2 = target: T3, PCTK2 (Homo sapiens, UniProt Q00537)
T3 construct: gene CDK17
T3 sequence (Q00537 whole entry): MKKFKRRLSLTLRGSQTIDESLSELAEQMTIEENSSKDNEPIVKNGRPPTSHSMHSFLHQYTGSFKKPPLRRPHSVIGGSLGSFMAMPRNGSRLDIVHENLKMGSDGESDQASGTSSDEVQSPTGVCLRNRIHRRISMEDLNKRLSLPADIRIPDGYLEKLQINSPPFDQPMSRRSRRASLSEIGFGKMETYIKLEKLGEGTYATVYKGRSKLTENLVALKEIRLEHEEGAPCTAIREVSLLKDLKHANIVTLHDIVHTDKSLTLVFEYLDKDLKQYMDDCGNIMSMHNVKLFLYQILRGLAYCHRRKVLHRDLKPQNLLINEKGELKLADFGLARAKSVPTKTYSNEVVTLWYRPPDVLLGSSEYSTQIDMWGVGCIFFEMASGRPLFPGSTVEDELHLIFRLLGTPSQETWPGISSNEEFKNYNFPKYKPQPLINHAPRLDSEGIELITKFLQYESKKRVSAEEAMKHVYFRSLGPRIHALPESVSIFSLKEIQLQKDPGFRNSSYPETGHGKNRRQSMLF
Method in brief: as §1

KIT(V559D) = KIT(V559D) (Homo sapiens, UniProt P10721, V559D)
Chain of KIT(V559D) (P10721 whole entry V559D): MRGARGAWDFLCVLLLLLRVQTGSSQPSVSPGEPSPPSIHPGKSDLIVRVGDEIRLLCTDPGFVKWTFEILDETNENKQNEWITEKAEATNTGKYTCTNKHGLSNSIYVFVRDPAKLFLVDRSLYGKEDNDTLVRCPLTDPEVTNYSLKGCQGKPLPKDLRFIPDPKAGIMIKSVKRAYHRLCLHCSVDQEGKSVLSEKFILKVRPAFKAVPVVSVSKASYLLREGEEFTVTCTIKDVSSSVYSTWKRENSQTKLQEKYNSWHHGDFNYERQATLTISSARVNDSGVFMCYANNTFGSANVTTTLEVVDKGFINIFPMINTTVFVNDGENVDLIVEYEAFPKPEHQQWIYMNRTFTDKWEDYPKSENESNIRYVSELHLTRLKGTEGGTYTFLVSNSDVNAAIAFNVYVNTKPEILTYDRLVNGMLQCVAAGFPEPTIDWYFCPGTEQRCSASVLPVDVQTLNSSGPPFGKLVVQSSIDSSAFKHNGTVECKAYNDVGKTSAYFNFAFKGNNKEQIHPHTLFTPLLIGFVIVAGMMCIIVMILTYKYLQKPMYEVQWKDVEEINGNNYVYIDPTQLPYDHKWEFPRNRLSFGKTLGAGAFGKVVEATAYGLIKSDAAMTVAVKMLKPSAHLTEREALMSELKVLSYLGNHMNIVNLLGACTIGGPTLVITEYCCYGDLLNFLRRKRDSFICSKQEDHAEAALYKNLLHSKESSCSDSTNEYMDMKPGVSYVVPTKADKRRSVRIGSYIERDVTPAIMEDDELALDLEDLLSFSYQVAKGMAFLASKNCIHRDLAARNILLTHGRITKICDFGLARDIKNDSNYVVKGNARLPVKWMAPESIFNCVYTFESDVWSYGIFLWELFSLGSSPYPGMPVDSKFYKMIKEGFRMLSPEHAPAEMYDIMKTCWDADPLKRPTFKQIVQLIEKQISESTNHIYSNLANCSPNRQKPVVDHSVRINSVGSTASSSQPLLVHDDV
Method in brief: as §1

EGFR(G719S) = EGFR(G719S) (Homo sapiens, UniProt P00533, G719S)
Method in brief: as §1

FRK = FRK (Homo sapiens, UniProt P42685)
Method in brief: as §1

EGFR(L858R,T790M) = EGFR(L858R,T790M) (Homo sapiens, UniProt P00533, L858R/T790M)
Method in brief: as §1

PIK3CG = PIK3CG (Homo sapiens, UniProt P48736)
Method in brief: as §1

PHKG2 = PHKG2 (Homo sapiens, UniProt P15735)
Method in brief: as §1

CAMK2B = CAMK2B (Homo sapiens, UniProt Q13554)
Method in brief: as §1

SRPK1 = SRPK1 (Homo sapiens, UniProt Q96SB4)
Chain of SRPK1 (Q96SB4 whole entry): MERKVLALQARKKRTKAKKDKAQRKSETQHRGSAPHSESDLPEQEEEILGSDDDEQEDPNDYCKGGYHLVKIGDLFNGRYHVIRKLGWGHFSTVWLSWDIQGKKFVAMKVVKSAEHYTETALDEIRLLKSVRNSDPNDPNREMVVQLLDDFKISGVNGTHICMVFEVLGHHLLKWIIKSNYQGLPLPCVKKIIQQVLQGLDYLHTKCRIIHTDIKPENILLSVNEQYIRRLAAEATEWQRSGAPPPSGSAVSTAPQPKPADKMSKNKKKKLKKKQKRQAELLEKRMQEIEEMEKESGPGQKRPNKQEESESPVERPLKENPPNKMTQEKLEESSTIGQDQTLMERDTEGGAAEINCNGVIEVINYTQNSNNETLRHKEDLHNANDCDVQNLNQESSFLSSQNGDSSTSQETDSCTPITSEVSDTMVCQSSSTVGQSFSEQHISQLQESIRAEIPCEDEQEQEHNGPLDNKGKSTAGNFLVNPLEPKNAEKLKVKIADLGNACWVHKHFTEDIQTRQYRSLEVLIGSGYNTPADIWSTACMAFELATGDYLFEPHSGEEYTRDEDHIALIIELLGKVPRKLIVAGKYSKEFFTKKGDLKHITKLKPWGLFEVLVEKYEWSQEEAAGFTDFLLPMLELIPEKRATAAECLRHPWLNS
Method in brief: as §1

BIKE = target: T4, BIKE (Homo sapiens, UniProt Q9NSY1)
T4 construct: gene BMP2K
Method in brief: as §1

MARK3 = MARK3 (Homo sapiens, UniProt P27448)
Method in brief: as §1

ROCK1 = ROCK1 (Homo sapiens, UniProt Q13464)
Method in brief: as §1

AMPK-alpha2 = target: T5, AMPK-alpha2 (Homo sapiens, UniProt P54646)
T5 construct: gene PRKAA2
T5 sequence (P54646 whole entry): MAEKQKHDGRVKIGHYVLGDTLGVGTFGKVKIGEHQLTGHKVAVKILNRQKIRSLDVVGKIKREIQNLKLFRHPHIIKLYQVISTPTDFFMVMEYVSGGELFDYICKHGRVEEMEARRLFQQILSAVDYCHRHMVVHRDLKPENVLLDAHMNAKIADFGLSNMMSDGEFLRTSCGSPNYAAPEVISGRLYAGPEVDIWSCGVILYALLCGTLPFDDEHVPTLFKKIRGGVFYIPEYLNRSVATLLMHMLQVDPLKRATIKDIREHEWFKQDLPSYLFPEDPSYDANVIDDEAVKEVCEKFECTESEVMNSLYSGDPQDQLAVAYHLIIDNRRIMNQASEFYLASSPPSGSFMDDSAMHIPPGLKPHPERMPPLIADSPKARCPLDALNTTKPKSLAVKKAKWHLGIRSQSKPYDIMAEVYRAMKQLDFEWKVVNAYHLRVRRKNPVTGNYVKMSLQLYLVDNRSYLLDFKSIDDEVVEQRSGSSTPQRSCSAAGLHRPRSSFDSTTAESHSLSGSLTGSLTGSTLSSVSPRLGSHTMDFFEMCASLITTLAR
Method in brief: as §1

MST4 = target: T6, MST4 (Homo sapiens, UniProt Q9P289)
T6 construct: gene STK26
Method in brief: as §1

DDR2 = DDR2 (Homo sapiens, UniProt Q16832)
Method in brief: as §1

MEK1 = target: T7, MEK1 (Homo sapiens, UniProt Q02750)
T7 construct: gene MAP2K1
Method in brief: as §1

SNARK = target: T8, SNARK (Homo sapiens, UniProt Q9H093)
T8 construct: gene NUAK2
T8 sequence (Q9H093 whole entry): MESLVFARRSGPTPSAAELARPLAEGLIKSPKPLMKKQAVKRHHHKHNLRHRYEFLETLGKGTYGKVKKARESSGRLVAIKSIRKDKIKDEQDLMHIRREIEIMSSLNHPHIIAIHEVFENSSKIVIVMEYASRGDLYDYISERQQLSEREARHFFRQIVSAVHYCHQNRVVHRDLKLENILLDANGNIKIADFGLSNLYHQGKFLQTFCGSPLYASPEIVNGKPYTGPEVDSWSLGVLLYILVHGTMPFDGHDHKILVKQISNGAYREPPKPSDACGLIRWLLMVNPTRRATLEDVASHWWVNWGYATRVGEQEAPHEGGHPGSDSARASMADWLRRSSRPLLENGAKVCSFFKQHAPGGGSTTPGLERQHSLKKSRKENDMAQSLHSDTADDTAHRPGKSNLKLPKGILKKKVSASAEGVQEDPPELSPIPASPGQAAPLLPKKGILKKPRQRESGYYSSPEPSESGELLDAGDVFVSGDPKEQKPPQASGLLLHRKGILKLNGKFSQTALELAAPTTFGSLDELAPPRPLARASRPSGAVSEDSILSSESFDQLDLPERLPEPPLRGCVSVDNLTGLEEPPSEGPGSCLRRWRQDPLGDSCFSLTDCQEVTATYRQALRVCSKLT
Method in brief: as §1

PRKD2 = PRKD2 (Homo sapiens, UniProt Q9BZL6)
Method in brief: as §1

ACVR1 = ACVR1 (Homo sapiens, UniProt Q04771)
Method in brief: as §1

FGR = FGR (Homo sapiens, UniProt P09769)
Method in brief: as §1

Compound: C=CC(=O)Nc1cc(-n2c(=O)ccc3cnc4ccc(-n5cccn5)cc4c32)ccc1C [CHMFL-BTK-11]
- remaining binding at 1 µM (MRCKB): 100%
- remaining binding at 1 µM (DCAMKL2): 100%
- remaining binding at 1 µM (AKT3): 100%
- remaining binding at 1 µM (MAP3K1): 100%
- remaining binding at 1 µM (PIK3CA(M1043I)): 99%
- remaining binding at 1 µM (PCTK2): 94%
- remaining binding at 1 µM (KIT(V559D)): 100%
- remaining binding at 1 µM (EGFR(G719S)): 88%
- remaining binding at 1 µM (FRK): 100%
- remaining binding at 1 µM (EGFR(L858R,T790M)): 42%
- remaining binding at 1 µM (PIK3CG): 73%
- remaining binding at 1 µM (PHKG2): 100%
- remaining binding at 1 µM (CAMK2B): 100%
- remaining binding at 1 µM (SRPK1): 100%
- remaining binding at 1 µM (BIKE): 91%
- remaining binding at 1 µM (MARK3): 100%
- remaining binding at 1 µM (ROCK1): 89%
- remaining binding at 1 µM (AMPK-alpha2): 86%
- remaining binding at 1 µM (MST4): 96%
- remaining binding at 1 µM (DDR2): 99%
- remaining binding at 1 µM (MEK1): 100%
- remaining binding at 1 µM (SNARK): 90%
- remaining binding at 1 µM (PRKD2): 100%
- remaining binding at 1 µM (ACVR1): 100%
- remaining binding at 1 µM (FGR): 100%
